Laboratory results published in PMC4467917 (ACS infectious diseases, 2015).
Like-named read-outs stand apart in the source and are kept apart here.

Legend:
xanthine oxidase [1] = assay: Effect of allopurinol predosing on PZA and POA exposure in NZW rabbits; assay type: in vivo, rabbit; conditions: for AUC: female, New Zealand white, rabbit, plasma, 40 mg/kg
[2] = assay type: in vivo, human; conditions: for CmaxPZA: Korean subjects, PZA 22–30 mg/kg
[3] = Plasma pharmacokinetics of oral PZA or POA in naïve New Zealand white rabbits; assay type: in vivo, rabbit
[4] = test system: M. tuberculosis strains H37Rv and H37Ra; assay: In vitro growth inhibitory assay in liquid medium; assay type: cell-based, Mycobacterium tuberculosis
[5] = female, rabbit, in vivo, po, 250 mg/kg
[6] = not given; remark: listed apart in the source
[7] = not given; remark: listed apart in the source
[8] = C3HeB/FeJ, mouse, in vivo
[9] = not given; remark: listed apart in the source
in vivo [10] = conditions: female, New Zealand white (NZW), rabbit, po, 250 mg/kg
in vivo [11] = conditions: female, CD-1, mouse, plasma, po, 150 mg/kg
in vivo [12] = conditions: female, C3HeB/FeJ, mouse, plasma, po, 150 mg/kg
in vivo [13] = conditions: C3HeB/FeJ, mouse, po
in vivo [14] = conditions: BALB/c, mouse, po, 150 mg/kg
[15] = cited from earlier work
[16] = Plasma pharmacokinetics of oral PZA or POA in naïve guinea pigs
[17] = Plasma pharmacokinetics of PZA and POA metabolite in uninfected marmosets
[18] = test system: M. tuberculosis H37Rv or H37Ra; assay: Susceptibility on solid media; assay type: cell-based, Mycobacterium tuberculosis
[19] = Oral pharmacokinetics of POA in preclinical species; assay type: in vivo; conditions: single oral POA dose; mice, guinea pigs and rabbits
[20] = Solubility of POA in aqueous media; assay type: physicochemical
xanthine oxidase [21] = target: T1, xanthine oxidase (Mus musculus, UniProt Q00519); conditions: female, CD-1, mouse, in vivo, po, 40 mg/kg
[22] = test system: acute intravenous infection; conditions: administered at 2 to 5% in food; cited from earlier work
xanthine oxidase [23] = target: T1, xanthine oxidase; assay: Effect of allopurinol predosing on PZA and POA exposure in CD-1 mice; conditions: allopurinol pretreatment either 4 doses of 20 mg/kg or 1 dose of 40 mg/kg
[24] = both, human, plasma, oral, 1500 mg
[25] = both, human, plasma, po, 1500 mg
[26] = female, New Zealand white, rabbit, plasma, po
[27] = female, BALB/c, mouse, in vivo, po, 150 mg/kg
[28] = female, Hartley, guinea pig, in vivo, po, 300 mg/kg
[29] = over a 24 h period, 14 TB patients, 1500 mg PZA, from PK model

T1 sequence (Q00519 whole entry): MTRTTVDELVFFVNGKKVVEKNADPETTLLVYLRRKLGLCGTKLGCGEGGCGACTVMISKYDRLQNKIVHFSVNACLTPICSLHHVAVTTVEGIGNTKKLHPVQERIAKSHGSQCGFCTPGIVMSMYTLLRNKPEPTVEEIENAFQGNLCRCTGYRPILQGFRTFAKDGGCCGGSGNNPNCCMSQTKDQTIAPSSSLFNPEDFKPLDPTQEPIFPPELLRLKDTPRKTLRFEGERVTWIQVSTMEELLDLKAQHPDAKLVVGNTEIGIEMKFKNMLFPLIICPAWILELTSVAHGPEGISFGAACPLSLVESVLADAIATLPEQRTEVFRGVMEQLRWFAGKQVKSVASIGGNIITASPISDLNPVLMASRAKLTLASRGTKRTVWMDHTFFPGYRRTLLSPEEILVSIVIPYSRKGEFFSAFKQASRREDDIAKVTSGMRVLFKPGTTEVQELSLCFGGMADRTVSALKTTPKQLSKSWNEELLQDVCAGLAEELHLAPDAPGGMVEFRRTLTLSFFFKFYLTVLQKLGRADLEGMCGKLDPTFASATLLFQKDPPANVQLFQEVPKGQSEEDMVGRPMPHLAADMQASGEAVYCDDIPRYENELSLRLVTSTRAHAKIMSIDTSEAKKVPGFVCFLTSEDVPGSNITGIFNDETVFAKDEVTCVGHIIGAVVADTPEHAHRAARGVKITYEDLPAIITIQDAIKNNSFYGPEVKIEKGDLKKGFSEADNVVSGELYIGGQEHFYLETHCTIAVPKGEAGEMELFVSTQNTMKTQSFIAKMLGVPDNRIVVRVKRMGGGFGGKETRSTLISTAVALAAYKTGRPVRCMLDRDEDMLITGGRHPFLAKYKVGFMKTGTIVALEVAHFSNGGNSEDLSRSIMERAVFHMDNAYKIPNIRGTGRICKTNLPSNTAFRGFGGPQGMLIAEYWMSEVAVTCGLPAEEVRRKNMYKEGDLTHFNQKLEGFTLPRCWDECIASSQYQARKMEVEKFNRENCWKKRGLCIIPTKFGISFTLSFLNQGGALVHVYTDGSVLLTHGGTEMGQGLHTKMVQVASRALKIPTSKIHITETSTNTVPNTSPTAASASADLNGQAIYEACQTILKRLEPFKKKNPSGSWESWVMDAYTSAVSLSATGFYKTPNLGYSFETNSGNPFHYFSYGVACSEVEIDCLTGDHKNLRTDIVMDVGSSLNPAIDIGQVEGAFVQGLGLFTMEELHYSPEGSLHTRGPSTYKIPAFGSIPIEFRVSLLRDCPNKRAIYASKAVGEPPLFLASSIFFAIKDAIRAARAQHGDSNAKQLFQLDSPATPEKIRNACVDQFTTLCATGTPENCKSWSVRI

Oc1ncnc2[nH]ncc12 [allopurinol]
AUC (xanthine oxidase [1]): 8 µg·h/mL

O=c1[nH]c(=O)c2c[nH]nc2[nH]1 [oxypurinol]
AUC (xanthine oxidase [1]): 124 µg·h/mL

NC(=O)c1cnccn1 [PZA, pyrazinamide]
CmaxPZA ([2]; single dose): 43 µg/mL | CmaxPZA ([2]; steady state): 59 µg/mL | ka, absorption rate constant ([2]; TB patients, PK model typical value (standard error)): 0.72 (18) h^−1 | clearance [2, 24]: 28.3 mL/min | k el [2, 24]: 1.58e-05 s⁻¹ | AUC ([2]; both, human, plasma, po): 617 to 738 µg·h/mL | CL/F [2, 25]: 0.467 mL/min/kg | Vd/F [2, 25]: 0.49 L/kg | CL/F [3, 26]: 12.5 mL/min/kg | Vd/F [3, 26]: 3.72 L/kg | k el [3, 26]: 5.56e-05 s⁻¹ | AUC ([3]; female, New Zealand white, rabbit, plasma, po, 300 mg/kg): 457 µg·h/mL | human-equivalent PZA dose ([3]; naïve rabbits, calculated to achieve a target AUC of 450 mg·h/L): 300 mg/kg | CmaxPZA ([3]; naïve rabbits, single oral PZA dose 300 mg/kg, average (SD)): 82 (17) µg/mL | ka, absorption rate constant ([3]; rabbits, PK model typical value (standard error)): 4.8 (2) h^−1 | susceptibility of H37Rv compared with H37Ra ([4]; across the pH range): less susceptible to PZA than H37Ra | CmaxPZA ([5]; New Zealand white (NZW)): 90 (35) µg/mL | concentrations at 24 h post PZA dosing: below the limit of quantification | ka, absorption rate constant ([6]; CD1 mice, PK model typical value (standard error)): 15 (11) h^−1 | CmaxPZA ([6]; naïve CD1 mice, single oral PZA dose 150 mg/kg, average (SD)): 109 (11) µg/mL | ka, absorption rate constant ([7]; C3HeB/FeJ mice, PK model typical value (standard error)): 4.47 (21) h^−1 | CmaxPZA ([7]; naïve C3HeB/FeJ mice, single oral PZA dose 150 mg/kg, average (SD)): 190 (24) µg/mL | human-equivalent PZA dose [8]: 160 mg/kg | ka, absorption rate constant [8]: 220 (1) h^−1 | CmaxPZA ([8]; po, 150 mg/kg): 89 (20) µg/mL | ka, absorption rate constant ([9]; BALB/c mice, PK model typical value (standard error)): 18 (8) h^−1 | human-equivalent PZA dose ([9]; BALB/c, mouse, in vivo): 175 mg/kg | CmaxPZA [9, 27]: 163 (38) µg/mL | AUC (in vivo [10]): 296 µg·h/mL | AUC (in vivo [11]): 210 µg·h/mL | CL/F (in vivo [11]): 12.5 mL/min/kg | Vd/F (in vivo [11]): 1.28 L/kg | k el (in vivo [11]): 0.000161 s⁻¹ | AUC (in vivo [12]): 580 µg·h/mL | CL/F (in vivo [12]): 10.3 mL/min/kg | Vd/F (in vivo [12]): 1.02 L/kg | k el (in vivo [12]): 0.000169 s⁻¹ | CL/F (in vivo [13]): 6.33 mL/min/kg | Vd/F (in vivo [13]): 1.85 L/kg | AUC (in vivo [13]; 150 mg/kg): 425 µg·h/mL | AUC (in vivo [14]): 388 µg·h/mL | CL/F (in vivo [14]; female): 7.83 mL/min/kg | Vd/F (in vivo [14]; female): 0.78 L/kg | k el (in vivo [14]; female): 0.000167 s⁻¹ | “normal” peak plasma concentrations ([15]; 1 to 2 h postdose): 20 to 60 µg/mL | mean AUC ([15]; TB patients receiving a standard daily dose of 1500 mg PZA): 380 to 625 µg·h/mL | AUC [16, 28]: 342 µg·h/mL | CL/F [16, 28]: 12.5 mL/min/kg | Vd/F [16, 28]: 2.54 L/kg | k el [16, 28]: 8.06e-05 s⁻¹ | ka, absorption rate constant ([16]; guinea pigs, PK model typical value (standard error NA)): 7.7 (NA) h^−1 | human-equivalent PZA dose ([16]; naïve guinea pigs, calculated to achieve a target AUC of 450 mg·h/L): 400 mg/kg | CmaxPZA ([16]; naïve guinea pigs, single oral PZA dose 300 mg/kg, average (SD)): 179 (100) µg/mL | AUC ([17]; marmoset (Callithrix jacchus), in vivo, po, 125 mg/kg): 743 µg·h/mL | ka, absorption rate constant ([17]; marmosets, PK model typical value (standard error)): 0.81 (7) h^−1 | CL/F ([17]; monkey, in vivo, po, 125 mg/kg): 3.83 mL/min/kg | Vd/F ([17]; monkey, in vivo, po, 125 mg/kg): 1.1 L/kg | k el ([17]; monkey, in vivo, po, 125 mg/kg): 5.83e-05 s⁻¹ | human-equivalent PZA dose ([17]; naïve marmosets, calculated to achieve a target AUC of 450 mg·h/L): 100 mg/kg | CmaxPZA ([17]; naïve marmosets, single oral PZA dose 125 mg/kg, average (SD)): 80 (47) µg/mL

O=C(O)c1cnccn1 [POA, pyrazinoic acid]
POA/PZA exposure ratio in plasma ([2]; active TB patients): approximately 0.2 | clearance [2, 24]: 31.7 mL/min | POA/PZA exposure ratio (range) [2, 29]: 17–32% | median POA/PZA exposure ratio [2, 29]: 19% | AUC ([3]; female, New Zealand white, rabbit, plasma, po, 200 mg/kg): 2010 µg·h/mL | CmaxPOA ([3]; naïve rabbits, single oral POA dose 200 mg/kg, average (SD)): 244 (51) µg/mL | effect of allopurinol predosing on POA exposure (xanthine oxidase [1]; rabbits, allopurinol 3 doses of 40 mg/kg followed by oral PZA 150 mg/kg): no effect | potency relative to PZA in liquid medium ([4]; pH 5.5, 5.8 and 6.5, H37Ra and H37Rv): consistently more potent than PZA | fold more potent than PZA in vitro ([4]; various pH and inocula): 2- to 4 fold | potency relative to PZA on agar plates [18]: twice as potent as PZA | oral bioavailability [19]: orally bioavailable | solubility in aqueous media [20]: poor solubility | AUCPOA met (POA metabolite derived from dosing of PZA) ([5]; New Zealand white (NZW)): 504 (139) µg·h/ml | CmaxPOA met ([5]; New Zealand white (NZW)): 111 (27) µg/mL | AUCPOA/AUCPZA ratio ([5]; New Zealand white): 1.70 (0.21) | concentrations at 24 h post PZA dosing: below the limit of quantification | tissue-to-plasma ratios (female, New Zealand White, rabbit, in vivo): 0.2 and 0.5 | CmaxPOA ([6]; naïve CD1 mice, single oral POA dose 150 mg/kg, average (SD)): 102 (32) µg/mL | CLm/Fm, oral clearance of the POA metabolite ([8]; po): 2.18 (6) L/h/kg | Vm/Fm, oral volume of distribution of the POA metabolite ([8]; po): 0.47 (13) L/kg | AUCPOA met (POA metabolite derived from dosing of PZA) ([8]; po, 150 mg/kg): 76 (16) µg·h/ml | AUCPOA/AUCPZA ratio ([8]; po, 150 mg/kg): 0.18 (0.02) | CmaxPOA met ([8]; po, 150 mg/kg): 16(5) µg/mL | AUCPOA met (POA metabolite derived from dosing of PZA) [9, 27]: 131 (13) µg·h/ml | AUCPOA/AUCPZA ratio [9, 27]: 0.38 (0.02) | CmaxPOA met [9, 27]: 43 (10) µg/mL | CmaxPOA ([9]; naïve BalbC mice, single oral POA dose 150 mg/kg, average (SD)): 155(33) µg/mL | fold increase in POA exposure (xanthine oxidase [21]): 12 fold | efficacy in a mouse model of acute intravenous infection [22]: lack of POA efficacy | AUC (in vivo [11]): 136 µg·h/mL | AUC (in vivo [14]; female): 287 µg·h/mL | AUC [16, 28]: 449 µg·h/mL | CmaxPOA ([16]; naïve guinea pigs, single oral POA dose 300 mg/kg, average (SD)): 165 (74) µg/mL

O=C(O)c1cnc(O)cn1 [5-hydroxy-POA, 5-hydroxypyrazinoate]
change in 5-hydroxy-POA exposure (xanthine oxidase [23]): concomitant decrease
